Experimental data taken from ChEMBL document CHEMBL5543095 (Eur J Med Chem, 2024).
pIC50: −log10 of the molar value. Activity calls are given as the source filed them. The calls are words filed in the database; no cut-off is given here.

Columns and labels:
U-87 MG [1] = test: Induction of apoptosis in human U87 cells assessed as dead cells at 0.625 uM incubated for 48 hrs by Annexin V-FITC/PI staining based flow cytometry analysis (reference value: 0.013%); type: functional, U-87MG ATCC
U-87 MG [2] = test: Induction of apoptosis in human U87 cells assessed as early apoptotic cells at 0.3125 uM incubated for 48 hrs by Annexin V-FITC/PI staining based flow cytometry analysis (reference value: 6.25%); type: functional, U-87MG ATCC
U-87 MG [3] = test: Antiproliferative activity against human U87 cells assessed as inhibition of cell growth inhibition incubated for 48 hrs by CCK-8 assay; type: functional, cell-based, U-87MG ATCC
U-87MG ATCC [4] = test: Upregulation of CORO1A gene expression in human U87 cells by transcriptome analysis; type: functional, cell-based
Tubulin (Homo sapiens) = Tubulin (Homo sapiens) (UniProt P68371+Q9H4B7+P0DPH7+P68366+Q13509+Q71U36+P04350+Q3ZCM7+P07437+P68363+Q9BQE3+Q6PEY2+Q13885+Q9BVA1+Q9BUF5); test: Binding affinity to colchicine binding site of tubulin in human U87 cells assessed as inhibition of EBI-tubulin adduct formation by measuring disappearance of adduct bands pretreated for 2 hrs followed by EBI addition and measured after 2 hrs by Western blot analysis; type: cell-based; settings: dose 10-100 µM, time 4.0 hrs
U-87MG ATCC [5] = test: Upregulation of NECTIN4 gene expression in human U87 cells by transcriptome analysis; type: functional, cell-based
GL261-Luc [6] = test: Antivascular activity against mouse GL261-Luc cells implanted in C57BL/6 mouse assessed as reduction in tumor microvessel density at 5 to 10 mg/kg, iv administered every other day on day 0,2,4,6,8,10 and measured after 12 days by IHC staining based analysis; type: functional, organism-based; settings: dose 5-10 mg/kg, time 12.0 day
U-87MG ATCC [7] = test: Upregulation of CGNL1 gene expression in human U87 cells by transcriptome analysis; type: functional, cell-based
[8] = Toxicity in C57BL/6 mouse implanted with mouse GL261-Luc cells assessed as histopathological changes in liver at 5 to 10 mg/kg, iv administered every other day on day 0,2,4,6,8,10 and measured after 12 days by H and E staining based analysis; type: organism-based; settings: in vivo, 288 h, dose 5-10 mg/kg, time 12 day
U-87 MG [9] = test: Induction of apoptosis in human U87 cells assessed as late apoptotic cells at 1.25 uM incubated for 48 hrs by Annexin V-FITC/PI staining based flow cytometry analysis (reference value: 2.08%); type: functional, U-87MG ATCC
[10] = Toxicity in C57BL/6 mouse implanted with mouse GL261-Luc cells assessed as histopathological changes in kidney at 5 to 10 mg/kg, iv administered every other day on day 0,2,4,6,8,10 and measured after 12 days by H and E staining based analysis; type: organism-based; settings: in vivo, 288 h, dose 5-10 mg/kg, time 12 day
GL261-Luc [11] = test: Antitumor activity against mouse GL261-Luc cells implanted in iv dosed C57BL/6 mouse assessed as inhibition of tumor growth administered every other day on day 0,2,4,6,8,10 and measured on day 12 by bioluminescence imaging analysis; type: functional, organism-based; settings: dose 5-10 mg/kg, time 12.0 day
U-87 MG [12] = test: Induction of apoptosis in human U87 cells assessed as early apoptotic cells at 1.25 uM incubated for 48 hrs by Annexin V-FITC/PI staining based flow cytometry analysis (reference value: 6.25%); type: functional, U-87MG ATCC
Huh-7 = test: Antiproliferative activity against human Huh-7 cells assessed as inhibition of cell growth inhibition incubated for 48 hrs by CCK-8 assay; type: functional, cell-based; settings: Huh-7, 48 h
U-87 MG [13] = test: Induction of apoptosis in human U87 cells assessed as late apoptotic cells at 2.5 uM incubated for 48 hrs by Annexin V-FITC/PI staining based flow cytometry analysis (reference value: 2.08%); type: functional, U-87MG ATCC
GL261-Luc [14] = test: Antitumor activity against mouse GL261-Luc cells implanted in C57BL/6 mouse assessed as prolongation of animal survival time at 5 to 10 mg/kg, iv administered every other day on day 0,2,4,6,8,10 and measured after 12 days; type: functional, organism-based; settings: dose 5-10 mg/kg, time 12.0 day
U-87 MG [15] = test: Induction of cell cycle arrest in human U87 cells assessed as accumulation of cells at […] at 4 uM measured after 48 hrs by PI staining based flow cytometry analysis (reference value: 8.55%); type: functional, U-87MG ATCC
U-87 MG [16] = test: Induction of apoptosis in human U87 cells assessed as early apoptotic cells at 2.5 uM incubated for 48 hrs by Annexin V-FITC/PI staining based flow cytometry analysis (reference value: 6.25%); type: functional, U-87MG ATCC
[17] = Apparent permeability across basolateral to apical side in MDCK-MDR1 cells at 10 uM incubated for 90 mins by LC-MS/MS analysis; type: ADME, cell-based, Canis lupus familiaris; settings: dog
U-87MG ATCC [18] = test: Downregulation of TUBA1A gene expression in human U87 cells by transcriptome analysis; type: functional, cell-based

Cc1ccc2ccc3c(c2n1)OC(N)=C(C#N)C3c1ccccc1 (stereo not given)
Activity (U-87 MG [1]): 0.1% | Activity (U-87 MG [2]): 7.01% | pIC50 (U-87 MG [3]): 6.05 | Activity (U-87MG ATCC [4]): Active | Activity (Tubulin (Homo sapiens)): Dose-Dependent Effect | Activity (U-87MG ATCC [5]): Active | Activity (GL261-Luc [6]): Active | Activity (U-87MG ATCC [7]): Active | Activity [8]: Non-Toxic | Activity (U-87 MG [9]): 7.82% | Activity [10]: Non-Toxic | Activity (GL261-Luc [11]): Dose-Dependent Effect | Activity (U-87 MG [12]): 21.2% | pIC50 (Huh-7): 5.92 | Activity (U-87 MG [13]): 16.8% | Activity (GL261-Luc [14]): Active | Activity (U-87 MG [15]): 59.3% | Activity (U-87 MG [16]): 20.6% | Papp B→A at 1.5 h, 10 µM [17]: 25.8 ×10⁻⁶ cm/s | Activity (U-87MG ATCC [18]): Active
